Our source for the TGI and GI50 values is PubChem BioAssay (NCI).

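Each compound was tested at five concentrations against cells in 96-well plates for 48 hours. The concentration for 50% growth inhibition is given as GI50. TGI: concentration producing complete growth inhibition.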 Some results are limits rather than exact numbers.

What all share (experiment): NCI anticancer screen, dose series, 48 h
Test [1] relates to HT29 colon.
Test [2] relates to T-47D breast.
In test [3] the test system is MDA-MB-435.
In test [4] the test system is UACC-257 melanoma.
Test [5] deals with A498 renal.
Test [6] relates to ACHN renal.
Test [7] has as its system NCI/ADR-RES ovarian.
Test [8] concerns HCT-15 colon.
The subject of test [9] is CCRF-CEM leukemia.
Test [10] deals with U251 CNS.

`CC(C)(C)c1cc(C(=O)O)c2c(c1)C(=O)OC2(c1ccccc1)c1ccccc1C(=O)O` (centres undefined): the TGI in test [1], in [2], in test [3], in test [4], in test [5] and in [6] was > 100 µM throughout. Also, the TGI in test [7], in test [8] and in [9] was > 100 µM throughout. Also, the GI50 in test [2], in test [3], in test [5] and in test [7] was > 100 µM throughout.

With `[Cl][Cu][Cl]`, the GI50 in test [1], in test [2], in [3], in test [4], in test [6] and in [10] was > 10 µM in each case. Further, the GI50 in [7], in test [8] and in [9] was > 10 µM each time. Also, the TGI in [1], in [2], in test [3], in test [4], in [6] and in test [10] was > 10 µM in each case. The TGI in [7], in [8] and in [9] was > 10 µM in each case.

As for `O=C1C(Sc2ccc3ccccc3c2)=C(Sc2ccc3ccccc3c2)C(=O)c2ccccc21`, the TGI in test [1] is 29 µM; in test [2], 4.62 µM; in [3] it was 31.5 µM; in test [4], 16.3 µM; in test [5], 33.4 µM; in [6] it was 17.3 µM. For the same compound, the TGI in test [10] amounted to 19.1 µM; in [7], 44.9 µM; in test [8] it was 23.5 µM.

For the compound `C=CC(=O)N[C@@H](/C=C/C(=O)OCC)Cc1ccc(-c2cc(Cl)cc(Cl)c2)cc1`, the GI50 in [1] was 12.8 µM; in test [2] it was 3.35 µM; in test [3], 8.58 µM; in test [6], 16.1 µM; in test [10], 17.2 µM; in test [7] it was 11.9 µM. Further, the GI50 in test [8] is 8.01 µM. Also, the TGI in test [1] is 41.9 µM; in [2], 28 µM; in [3], 50 µM; in [6] it was > 100 µM; in test [10], > 100 µM; in [7], 73.3 µM. Besides, the TGI in test [8] was > 100 µM.

As for `Cc1ccc(S(=O)(=O)NC(=O)OC23COCN2COC3)cc1`, the TGI in test [1], in [2], in test [3], in [4], in test [5] and in [6] was > 100 µM throughout. The TGI in test [10], in [7] and in [8] was > 100 µM each time.

Regarding `O=C1C(Nc2cccc(O)c2)=C(Sc2ccccc2)C(=O)N1Cc1ccccc1`, the GI50 in test [1] was 14.3 µM; in [2], 1.84 µM; in test [3] it was 11.1 µM; in test [6], 12.6 µM; in test [10], 13 µM; in test [7], 11.5 µM. Also, the GI50 in [8] is 12.4 µM; in [9] it was 1.88 µM. For the same compound, the TGI in [1] was 29.8 µM; in [2], 19.9 µM; in test [3] it was 27.4 µM; in test [6], 31.6 µM; in [10], 35.4 µM; in test [7], 31.9 µM. Moreover, the TGI turned out to be 38.8 µM in [8] and 10.1 µM in test [9].

With `COC(=O)c1cc([N+](=O)[O-])cc([N+](=O)[O-])c1Cl`, the GI50 in test [1] was 1.88 µM; in test [2], 1.71 µM; in test [3] it was 1.89 µM; in test [4], 1.58 µM; in [5], 17 µM; in test [6] it was 1.76 µM. Further, the figures for the GI50 in test [10], in test [7] and in [8] were 2.14 µM, 2.8 µM and 2.19 µM, respectively. Besides, the TGI in test [1] amounted to 3.49 µM; in test [2], 4.21 µM; in test [3], 3.64 µM; in test [4], 2.98 µM; in test [5], 30.7 µM; in test [6], 3.21 µM. Besides, the TGI came out at 4.78 µM in test [10], 8.71 µM in test [7] and 5.44 µM in test [8].

In the case of `N#Cc1cc2c(cc1Cl)Sc1nnc(Nc3cccc4ccccc34)n1S2(=O)=O`, the GI50 in [1] is 3.96 µM; in test [2], 1.25 µM; in [3] it was 4.35 µM; in test [4] it was 14.8 µM; in test [5], 17.5 µM; in test [6], 6.34 µM. For the same compound, the GI50 in test [10] was 3.23 µM; in test [7], 2.11 µM; in [8], 4.74 µM. In addition, the TGI in [1] is 12.7 µM; in [2], 3.67 µM; in test [3] it was 16.4 µM; in [4], 30.1 µM; in test [5], 31.7 µM; in test [6], 19.2 µM. The values for the TGI in [10], in test [7] and in test [8] were 10.7 µM, 4.4 µM and 24.4 µM, respectively.

Turning to `COc1cc(/C=C/C(=O)O[C@H]2[C@H](O[C@@H]3O[C@@H](C)[C@H](O)[C@@H](O)[C@H]3O)[C@@H](O)[C@H](OCCc3ccc(O)c(O)c3)O[C@@H]2COC2OCC(O)(CO)C2O)ccc1O` (some centres undefined), the GI50 in test [2] was > 100 µM; in [3], 17.3 µM; in test [4], > 100 µM; in test [6], > 100 µM; in test [10] it was > 100 µM; in [7], > 100 µM. Also, the GI50 in test [8] is > 100 µM. Moreover, the TGI in test [2] is > 100 µM; in test [3], 35.2 µM; in test [4], > 100 µM; in test [6] it was > 100 µM; in test [10], > 100 µM; in test [7], > 100 µM. Further, the TGI in test [8] was > 100 µM.
